Measurements published in patent US12569506B2, “Methods of treating osteonecrosis with LLP2A-bisphosphonate compounds” (The Regents of the University of California, priority 2016, dated 2026).
“Also recorded” adds a separate entry of the source.

What was measured:
[1] = test system: dexamethasone-treated mice; assay: Histological evaluation (H&E) of femoral epiphyses, 90 day model; assay type: in vivo, BALB/c mice
Experimental: FIG. 9A-9F. Histological evaluation of femurs from placebo- or dexamethasone-treated mice. Mice were treated with placebo (PL) or dexamethasone alone (Dex) as described above for FIG. 7. All mice were euthanized at day 90. Right and left distal femurs were fixed in 10% neutral buffer formalin and decalcified. The specimens were dehydrated, embedded in paraffin, cut into 5 micron sections and H&E stained. The sections were scored by two experienced histologists and then a consensus reading was performed by two additional histologists. FIG. 9A-9B: 4× (A) and 20× (B) magnifications of representative proximal femoral epiphyses in mice treated with placebo. (C) 4× magnification of a representative proximal femoral epiphyses in mice treated with dexamethasone (Dex) alone. FIGS. 9D, 9E, and 9F: 20× magnifications of representative proximal femoral epiphyses in mice treated with dexamethasone (Dex) alone.
FIG. 11A-11F. Histological evaluation of femurs from LLP2A-Ale-treated mice. Mice were treated with Dex+250 μg/kg LLP2A-Ale as described above for FIG. 7. All mice were euthanized at day 90. Right and left distal femurs were fixed in 10% neutral buffer formalin and decalcified. The specimens were dehydrated, embedded in paraffin, cut into 5 micron sections and H&E stained. The sections were scored by two experienced histologists and then a consensus reading was performed by two additional histologists. (A, D): 4× magnifications of representative proximal femoral epiphyses in mice treated with Dex+LLP2A-Ale. (B, C, E, F): 20× magnifications of representative proximal femoral epiphyses in mice treated with Dex+LLP2A-Ale.
(§1) Both the right and left distal femurs were fixed in 10% neutral buffered formalin and were shaken for 3 days, then decalcified in 5% EDTA until the bones were fully decalcified. The specimens were then processed in ascending concentrations of ethanol and embedded in paraffin. Tissue sections were cut into 5 microns sections, stained with hematoxylin and eosin and evaluated for the presence of osteonecrosis by bright field microscopy at 20× magnification. Experimental methods are also described in Mohan et al., Calif Tissue Int (2016) doi:10.1007/s00223-016-0195-6, which is incorporated herein by reference in its entirety for all purposes. Osteonecrosis was detected using modified criteria reported by Yang el al., (a mouse model for glucocorticoid-induced osteonecrosis: Effect of a steroid holiday. J Orthop Res. 2009; 27:169-75) which defines osteonecrosis as requiring all of the following changes: (1) empty lacunae, (2) pyknotic osteocyte nuclei in areas of empty lacunae and necrosis of adjacent bone marrow, (3) presence of excessive fat cells in the bone marrow, (4) cartilage degradation and (5) presence of fibrin thrombi in the blood vessels. In addition, trabecular bone volume, adipose volume, sinusoid volume and osteoblast surface at the distal femoral epiphyses were measured. Empty lacunae density was calculated by empty lacunae/total osteocytes within the entire distal femoral epiphysis region for each sample. Each section was scored by two experienced histologists, then a consensus reading was performed by two additional experienced histologists.

[2] = test system: dexamethasone-treated mice; assay: Empty lacunae density in distal femoral epiphysis, 90 day model; assay type: in vivo, BALB/c mice; settings: day 90
Experimental: FIG. 8A-8B. Empty lacunae density of femurs from in dexamethasone-treated mice. Mice treated with placebo (PL), dexamethasone alone (Dex), Dex+250 μg/kg LLP2A-Ale, Dex+500 μg/kg LLP2A-Ale, or Dex+750 μg/kg LLP2A-Ale as described above for FIG. 7 were assessed for empty lacunae density within the distal femoral epiphysis region. Empty lacunae density was calculated by determining the number of empty lacunae in the entire distal femoral epiphysis region divided by the total number of osteocytes within the same region for each specimen. In the Dex only group, 75% of the samples had 10% or more empty lacunae, as compared to 44-62% of the samples in LLP2A-Ale-treated groups. A higher number of LLP2A-Ale 250 μg/kg, LLP2A-Ale 500 μg/kg, and LLP2A-Ale 750 μg/kg—treated samples had less than 10% empty lacunae as compared to Dex only treatment.
as §1, with “Experimental methods are also described in Mohan et al., Calif Tissue Int (2016) doi:10.1007/s00223-016-0195-6, which is incorporated herein by reference in its entirety for all purposes.” left out, “Each section was scored by two experienced histologists, then a consensus reading was performed by two additional experienced histologists.” left out

[3] = test system: dexamethasone-treated mice; assay: Adipose and sinusoid volume of distal femoral epiphysis, 90 day model; assay type: in vivo, BALB/c mice
Experimental: FIG. 10A-10B. Adipose and sinusoid volume of femurs from treated mice. Mice were treated with placebo (PL), dexamethasone alone (Dex), Dex+250 μg/kg LLP2A-Ale, Dex+500 μg/kg LLP2A-Ale, or Dex+750 μg/kg LLP2A-Ale as described above for FIG. 7. (A) Mice were assessed for adipose volume within the distal femoral epiphysis region. […] (B) Mice were assessed for sinusoids in the bone marrow.
as §1

[4] = test system: CD31 and Endomucin expression; assay: 30 and 45 day prevention study: blood vessels in the distal femur (CD31 and Endomucin expression); assay type: in vivo, BALB/c mice; settings: 30 and 45 day study, conclusion
Experimental: The efficacy of LLP2A-Ale and hPTH (1-34) was evaluated over a 30 and 45 day study using a mouse model of glucocorticoid-induced osteonecrosis. Seven week-old male BALB/c mice were randomized into Placebo group (fresh water), glucocorticoid only (4 mg/L dexamethasone (Dex) in drinking water), Dex+250 μg/kg LLP2A-Ale, Dex+500 μg/kg LLP2A-Ale, or Dex+40 μg/kg hPTH (administered five times a week) for 30 or 45 days. At day 30 or 45, the mice were sacrificed. Study endpoints included histological evidence of osteonecrosis, bone mass, and prevalent blood vessels (CD31 and Endomucin expression) in the distal femur, and was performed as set forth in Example 2. Non-parametric Kruskal-Wallis tests were used to determine the differences between the groups.

[5] = test system: glucocorticoid-treated mice; assay: Trabecular bone volume in glucocorticoid-treated mice; assay type: in vivo; settings: GC 28 days then treatment
Experimental: FIG. 6. Trabecular bone volume in glucocorticoid-treated mice. Mice were treated for 28 days with glucocorticoid (GC), then treated with either LLP2A-Ale, PTH, or LLP2A-Ale+PTH. The outcome measure was the change in trabecular bone mass from day 28 to 56, measured in vivo at the distal femur (left panel) and change in trabecular bone mass for the vertebral trabecular bone volume (right panel).
Changes in trabecular bone mass during the treatment period for the distal femur and vertebral trabecular bone volume were measured.

## Cc1ccccc1NC(=O)Nc1ccc(CC(=O)N[C@@H](CCCCNC(=O)/C=C/c2cccnc2)C(=O)N[C@@H](CCCC(=O)O)C(=O)NC2(C(=O)NCCOCCOCCNC(=O)CCC(=O)NCCOCCOCCNC(=O)CCC(=O)N[C@@H](CCCCNC(=O)[C@H](N)CSC3CC(=O)N(CC4CCC(C(=O)NCCCC(O)(P(=O)(O)O)P(=O)(O)O)CC4)C3=O)C(N)=O)CCCCC2)cc1 (stereo partly drawn) [LLP2A-Ale]
[1]; Dex+250 μg/kg LLP2A-Ale, day 90, H&E (FIG. 11)
  Sinusoid formation (histological sections of epiphyses): increased sinusoid formation; also recorded: increase in sinusoid formation
[1]; day 90
  Amount of fibrin within the bone marrow: appeared to reduce the amount of fibrin
[1]; epiphyses, day 90
  Number of osteoblasts on the bone surface in areas of osteonecrosis: increased the number of osteoblasts
[1]; vs dexamethasone alone, day 90
  Adipocyte density in the bone marrow: appeared to reduce
  Cellularity of the bone marrow: maintained the cellularity of the bone marrow
  Number of empty lacunae/pyknotic nuclei: appeared to reduce
  Sinusoidal red blood cell volume: increased the sinusoidal red blood cell volume
[2]; LLP2A-Ale 250, 500, 750 μg/kg vs Dex only
  Samples with less than 10% empty lacunae: more samples; also recorded: higher number
[2]; distal femoral epiphysis, Dex only vs LLP2A-Ale 250, 500, 750 μg/kg groups (FIG. 8A-B)
  Samples with 10% or more empty lacunae: 44-62%
[3]; LLP2A-Ale above 250 μg/kg vs 250 μg/kg
  Sinusoid volume on increasing the dose: marginal decrease
[3]; all three dosages (250, 500, 750 μg/kg) vs Dex alone, day 90 (FIG. 10A)
  Adipose volume within the distal femoral epiphysis: reduced adipose volumes
[3]; all three dosages vs placebo or Dex alone, day 90 (FIG. 10B)
  Sinusoid volume in the bone marrow: increased sinusoid volumes
[4]
  Vascular integrity of the distal femur: maintained the vascular integrity
[5]; change from day 28 to 56, measured in vivo (FIG. 6 left)
  Change in trabecular bone mass/volume at the distal femur: increased the distal femur trabecular bone volume to the baseline/sham level
[5]; day 28 to 56 (FIG. 6 right)
  Vertebral trabecular bone volume: increased the bone volume relative to the glucocorticoid-treated mice
